Assay results from patent US11000033B2, “Ketone or oxime compound, and herbicide” (NISSAN CHEMICAL CORPORATION, priority 2014, dated 2021).

Legend:
Format in all cases: in vivo
Apera spica-venti = assay: Test Example 5: herbicidal effect by foliage application, plastic box (symbol L); settings: 320 g/ha, 3 weeks after application
In short: (§1)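 Visual herbicidal score, taken three weeks post-application, of seedlings sprayed on the foliage with water-diluted emulsion at a predetermined amount; plants were 14 days old, greenhouse-raised at 25° C. to 30° C.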

Alopecurus myosuroides [1] = assay: Test Example 4: herbicidal effect by soil treatment (symbol J); settings: application herbicide amount 320 g/ha
In short: (§2)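 Seeds were sown in sterilized diluvial soil, covered with about 1.5 cm of soil, and the soil surface was sprayed with a water-diluted emulsion of the compound at a predetermined rate. Plants grew in a greenhouse at 25° C. to 30° C.; effects were scored visually 3 weeks after application.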

Lolium multiflorum Lam. = assay: Test Example 5: herbicidal effect by foliage application, plastic box (symbol K); settings: 320 g/ha, 3 weeks after application
In short: as §1

[2] = test system: Echinochloa crus-galli var. crus-galli; assay: Test Example 5: herbicidal effect by foliage application, plastic box (symbol H); settings: 320 g/ha, 3 weeks after application
In short: as §1

Chenopodium album [3] = assay: Test Example 5: herbicidal effect by foliage application, plastic box (symbol O); settings: 320 g/ha, 3 weeks after application
In short: as §1

Amaranthus retroflexus = assay: Test Example 5: herbicidal effect by foliage application, plastic box (symbol N); settings: 320 g/ha, 3 weeks after application
In short: as §1

[4] = test system: Echinochloa crus-galli var. crus-galli; assay: Test Example 3: herbicidal effect by foliage application, Wagner pot (symbol H); settings: application herbicide amount 320 g/ha; for H (Echinochloa crus-galli var. crus-galli) herbicidal effect grade: Table 24
In short: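 Post-emergence, paddy-type test: seedlings 14 d old in shallow-flooded (0.1–0.5 cm) alluvial soil, 25–30 °C greenhouse. Emulsion diluted to target rate, sprayed on leaves. Read-out: visual effect on each species at 3 weeks, per set criteria.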

transplanted rice plant = assay: Test Example 1: effect on crop, application before weed generation in submerged conditions (symbol a); settings: application herbicide amount 320 g/ha
In short: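 Alluvial soil pots flooded to 4 cm water, sown with Echinochloa oryzacola, Scirpus juncoides and Monochoria vaginalis, then transplanted with 2.5 leaf stage rice seedlings; pre-emergence application. Greenhouse 25° C. to 30° C.; scored 0–5 by herbicidal ratio 3 weeks after application.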

Stellaria media = assay: Test Example 4: herbicidal effect by soil treatment (symbol P); settings: application herbicide amount 320 g/ha
In short: as §2

Chenopodium album [5] = assay: Test Example 4: herbicidal effect by soil treatment (symbol O); settings: application herbicide amount 320 g/ha
In short: as §2

corn [6] = assay: Test Example 5: effect on crop by foliage application, plastic box (symbol c); settings: 320 g/ha, 3 weeks after application
In short: (§3)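 Box culture: sterile diluvial soil, seeds spot-sown, ~1.5 cm cover, raised under glass at 25–30° C.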

Alopecurus myosuroides [7] = assay: Test Example 5: herbicidal effect by foliage application, plastic box (symbol J); settings: 320 g/ha, 3 weeks after application
In short: as §1

Veronica persica = assay: Test Example 5: herbicidal effect by foliage application, plastic box (symbol R); settings: 320 g/ha, 3 weeks after application
In short: as §1

Abutilon theophrasti = assay: Test Example 4: herbicidal effect by soil treatment (symbol M); settings: application herbicide amount 320 g/ha
In short: as §2

soybean = assay: Test Example 5: effect on crop by foliage application, plastic box (symbol d); settings: 320 g/ha, 3 weeks after application
In short: as §3

corn [8] = assay: Test Example 4: effect on crop by soil treatment (symbol c); settings: application herbicide amount 320 g/ha
In short: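 Greenhouse culture at 25° C. to 30° C. followed sowing of seed in spots on sterilized diluvial soil with a soil cover close to 1.5 cm thick.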

Compound	L: Apera spica-venti, herbicidal effect (criteria of Test Example 1) (Apera spica-venti)	K: Lolium multiflorum Lam., herbicidal effect (criteria of Test Example 1) (Lolium multiflorum Lam.)	H: Echinochloa crus-galli var. crus-galli, herbicidal effect (criteria of Test Example 1) [2]	O: Chenopodium album, herbicidal effect (criteria of Test Example 1) (Chenopodium album [3])	N: Amaranthus retroflexus, herbicidal effect (criteria of Test Example 1) (Amaranthus retroflexus)	herbicidal effect on H (Echinochloa crus-galli var. crus-galli), grade 0-5 [4]	Effect grade on crop, a: transplanted rice plant (transplanted rice plant)	c: corn, effect on crop (criteria of Test Example 1) (corn [6])	J: Alopecurus myosuroides, herbicidal effect (criteria of Test Example 1) (Alopecurus myosuroides [7])	R: Veronica persica, herbicidal effect (criteria of Test Example 1) (Veronica persica)	d: soybean, effect on crop (criteria of Test Example 1) (soybean)	Herbicidal effect grade, J: Alopecurus myosuroides (Alopecurus myosuroides [1])	Herbicidal effect grade, P: Stellaria media (Stellaria media)	Herbicidal effect grade, O: Chenopodium album (Chenopodium album [5])	Herbicidal effect grade, M: Abutilon theophrasti (Abutilon theophrasti)	Effect on crop grade, c: corn (corn [8])	L: Apera spica-venti, herbicidal effect grade (Apera spica-venti)	K: Lolium multiflorum Lam., herbicidal effect grade (Lolium multiflorum Lam.)	H: Echinochloa crus-galli var. crus-galli, herbicidal effect grade [2]	O: Chenopodium album, herbicidal effect grade (Chenopodium album [3])	further results
CON=C(C)CC1CC(O)=C(c2c(C)cc(-c3ccc(F)cc3)cc2C)C1=O (mixture of isomers) [6-058]	5 (Herbicidal ratio of 90% or more (almost completely withered))	5 (Herbicidal ratio of 90% or more (almost completely withered))	5 (Herbicidal ratio of 90% or more (almost completely withered))	5 (Herbicidal ratio of 90% or more (almost completely withered))	5 (Herbicidal ratio of 90% or more (almost completely withered))	5 (Herbicidal ratio of 90% or more (almost completely withered))	5 (Herbicidal ratio of 90% or more (almost completely withered))	5 (Herbicidal ratio of 90% or more (almost completely withered))	5 (Herbicidal ratio of 90% or more (almost completely withered))	5 (Herbicidal ratio of 90% or more (almost completely withered))	2 (Herbicidal ratio of 20% or higher and lower than 40%)										J: Alopecurus myosuroides, herbicidal effect grade (Alopecurus myosuroides [1]): 5 (Herbicidal ratio of 90% or more (almost completely withered)); P: Stellaria media, herbicidal effect grade (Stellaria media): 5 (Herbicidal ratio of 90% or more (almost completely withered)); O: Chenopodium album, herbicidal effect grade (Chenopodium album [5]): 5 (Herbicidal ratio of 90% or more (almost completely withered)); M: Abutilon theophrasti, herbicidal effect grade (Abutilon theophrasti): 5 (Herbicidal ratio of 90% or more (almost completely withered)); c: corn, effect on crop grade (corn [8]): 5 (Herbicidal ratio of 90% or more (almost completely withered))
CON=C(C)CC1CC(O)=C(c2c(F)cc(Br)cc2OC)C1=O (stereo not shown) [6-096]	3 (Herbicidal ratio of 40% or higher and lower than 70%)	5 (Herbicidal ratio of 90% or more (almost completely withered))		1 (Herbicidal ratio of 5% or higher and lower than 20%)		5 (Herbicidal ratio of 90% or more (almost completely withered))	5 (Herbicidal ratio of 90% or more (almost completely withered))		4 (Herbicidal ratio of 70% or higher and lower than 90%)	3 (Herbicidal ratio of 40% or higher and lower than 70%)		3 (Herbicidal ratio of 40% or higher and lower than 70%)	0 (Herbicidal ratio of 5% or lower (almost no effect))	0 (Herbicidal ratio of 5% or lower (almost no effect))	0 (Herbicidal ratio of 5% or lower (almost no effect))	3 (Herbicidal ratio of 40% or higher and lower than 70%)					
CC(=O)CC1CC(O)=C(c2c(C)cc(-c3ccccc3)cc2C)C1=O (stereo not shown) [7-004]	5 (Herbicidal ratio of 90% or more (almost completely withered))	5 (Herbicidal ratio of 90% or more (almost completely withered))	5 (Herbicidal ratio of 90% or more (almost completely withered))	2 (Herbicidal ratio of 20% or higher and lower than 40%)	0 (Herbicidal ratio of 5% or lower (almost no effect))	5 (Herbicidal ratio of 90% or more (almost completely withered))	5 (Herbicidal ratio of 90% or more (almost completely withered))	5 (Herbicidal ratio of 90% or more (almost completely withered))	5 (Herbicidal ratio of 90% or more (almost completely withered))		4 (Herbicidal ratio of 70% or higher and lower than 90%)	5 (Herbicidal ratio of 90% or more (almost completely withered))	0 (Herbicidal ratio of 5% or lower (almost no effect))	0 (Herbicidal ratio of 5% or lower (almost no effect))	3 (Herbicidal ratio of 40% or higher and lower than 70%)	4 (Herbicidal ratio of 70% or higher and lower than 90%)					
CC(=O)C1CC(O)=C(c2c(C)cc(C)cc2C)C1=O (stereo not shown) [8-001]							0 (Herbicidal ratio of 5% or lower (almost no effect))					0 (Herbicidal ratio of 5% or lower (almost no effect))	0 (Herbicidal ratio of 5% or lower (almost no effect))	0 (Herbicidal ratio of 5% or lower (almost no effect))	0 (Herbicidal ratio of 5% or lower (almost no effect))	0 (Herbicidal ratio of 5% or lower (almost no effect))	0 (Herbicidal ratio of 5% or lower (almost no effect))	1 (Herbicidal ratio of 5% or higher and lower than 20%)	1 (Herbicidal ratio of 5% or higher and lower than 20%)	0 (Herbicidal ratio of 5% or lower (almost no effect))	N: Amaranthus retroflexus, herbicidal effect grade (Amaranthus retroflexus): 0 (Herbicidal ratio of 5% or lower (almost no effect)); H (Echinochloa crus-galli var. crus-galli) herbicidal effect grade [4]: 0 (Herbicidal ratio of 5% or lower (almost no effect)); c: corn, effect on crop grade (corn [6]): 0 (Herbicidal ratio of 5% or lower (almost no effect)); J: Alopecurus myosuroides, herbicidal effect grade (Alopecurus myosuroides [7]): 0 (Herbicidal ratio of 5% or lower (almost no effect)); d: soybean, effect on crop grade (soybean): 0 (Herbicidal ratio of 5% or lower (almost no effect))
CON=C(C)C(=O)C1CC(O)=C(c2c(C)cc(C)cc2C)C1=O (stereo not shown) [8-002]							0 (Herbicidal ratio of 5% or lower (almost no effect))					0 (Herbicidal ratio of 5% or lower (almost no effect))	0 (Herbicidal ratio of 5% or lower (almost no effect))		0 (Herbicidal ratio of 5% or lower (almost no effect))	0 (Herbicidal ratio of 5% or lower (almost no effect))	3 (Herbicidal ratio of 40% or higher and lower than 70%)	5 (Herbicidal ratio of 90% or more (almost completely withered))	3 (Herbicidal ratio of 40% or higher and lower than 70%)	0 (Herbicidal ratio of 5% or lower (almost no effect))	N: Amaranthus retroflexus, herbicidal effect grade (Amaranthus retroflexus): 0 (Herbicidal ratio of 5% or lower (almost no effect)); H (Echinochloa crus-galli var. crus-galli) herbicidal effect grade [4]: 0 (Herbicidal ratio of 5% or lower (almost no effect)); c: corn, effect on crop grade (corn [6]): 0 (Herbicidal ratio of 5% or lower (almost no effect)); J: Alopecurus myosuroides, herbicidal effect grade (Alopecurus myosuroides [7]): 4 (Herbicidal ratio of 70% or higher and lower than 90%); R: Veronica persica, herbicidal effect grade (Veronica persica): 0 (Herbicidal ratio of 5% or lower (almost no effect)); d: soybean, effect on crop grade (soybean): 0 (Herbicidal ratio of 5% or lower (almost no effect))
